According to PubChem BioAssay (NCI):
Values joined by “and” are separate entries in the source; they are usually repeats but may differ in a detail not shown here. Identical values can stand only once.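 Interpolation was linear, between the two tested concentrations surrounding the appropriate level; five concentrations were tested over 48 hours in 96-well plates. GI50 = concentration required for 50% inhibition of growth. TGI marks complete inhibition of growth.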

Experiments:
Test in all cases: NCI tumour cell line growth inhibition, 48 h
[1] = tested on: ACHN renal
[2] = tested on: IGROV1 ovarian
[3] = tested on: M14 melanoma
[4] = tested on: MALME-3M melanoma
[5] = tested on: NCI-H23 lung
[6] = tested on: SW-620 colon
[7] = tested on: TK-10 renal
[8] = tested on: U251 CNS
[9] = tested on: UACC-257 melanoma
[10] = tested on: UACC-62 melanoma

N#CC(c1ccccc1)N1CCCN(C(C#N)c2ccccc2)C1c1ccccc1O (centres undefined)
TGI [1]: > 100 µM | TGI [2]: > 100 µM | TGI [3]: > 100 µM | TGI [4]: > 100 µM | TGI [5]: > 100 µM | TGI [6]: > 100 µM | TGI [7]: > 100 µM | TGI [8]: > 100 µM | TGI [9]: > 100 µM | TGI [10]: > 100 µM

O=[n+]1c2c(n([O-])c3ccccc31)-c1cccc3cccc-2c13
TGI [1]: > 100 µM | TGI [3]: > 100 µM | TGI [5]: > 100 µM | TGI [6]: > 100 µM | TGI [7]: > 100 µM | TGI [8]: > 100 µM | TGI [9]: > 100 µM

O=[N+]([O-])c1ccc2c(c1)c(N=NC(=S)NC1CCCCC1)c(O)n2CN1CCOCC1
TGI [1]: 18 µM | TGI [2]: 15.4 µM | TGI [3]: 21.8 µM | TGI [4]: 24.4 µM | TGI [5]: 21.4 µM | TGI [6]: > 100 µM | TGI [7]: 19.4 µM | TGI [8]: 17.3 µM | TGI [9]: 22.7 µM | TGI [10]: 20.5 µM

CCC(C)C1NC(=O)C2CCCN2C(=O)C(CC2CO2)OC(=O)CCNC(=O)C(C)N(C)C(=O)C(C(C)C)N(C)C1=O (centres undefined)
TGI [1]: > 100 µM | TGI [2]: > 100 µM | TGI [3]: 0.0179 µM | TGI [4]: 0.0641 µM | TGI [5]: > 100 µM | TGI [6]: > 100 µM | TGI [7]: > 100 µM | TGI [8]: > 100 µM | TGI [10]: 2.15 µM

COC(=O)C1C(C)N1C (centres undefined)
TGI [2]: > 100 µM | TGI [3]: > 100 µM | TGI [5]: > 100 µM | TGI [6]: > 100 µM | TGI [7]: > 100 µM | TGI [8]: > 100 µM | TGI [9]: > 100 µM | TGI [10]: > 100 µM

Cc1cc(O)c(C(C)C)cc1CN1CCCCC1
TGI [1]: > 100 µM | TGI [2]: > 100 µM | TGI [3]: > 100 µM | TGI [4]: > 100 µM | TGI [5]: > 100 µM | TGI [6]: > 100 µM | TGI [7]: > 100 µM | TGI [8]: > 100 µM | TGI [9]: > 100 µM | TGI [10]: > 100 µM

CC[C@@]1(O)C(=O)OCc2c1cc1n(c2=O)Cc2c-1nc1ccc(O)cc1c2CC[Si](C)(C)C
TGI [1]: 0.363 µM | TGI [2]: 0.202 µM | TGI [3]: 0.0151 µM | TGI [4]: 1.41 µM | TGI [5]: 0.0103 µM and 0.0118 µM | TGI [6]: > 100 µM | TGI [7]: 0.693 µM and 0.749 µM | TGI [9]: 0.136 µM and 0.0447 µM | TGI [10]: 0.0172 µM and 0.0149 µM

O=C(O)C(CSC(c1ccccc1)(c1ccccc1)c1ccccc1)N=Cc1cccs1 (centres undefined)
TGI [1]: > 100 µM | TGI [2]: > 100 µM | TGI [3]: 5.11 µM | TGI [4]: > 69.5 µM | TGI [5]: 43.3 µM | TGI [6]: > 100 µM | TGI [7]: > 100 µM | TGI [8]: > 62.4 µM | TGI [9]: > 100 µM | TGI [10]: > 78.3 µM

COc1ccc(N=c2ssc(C(=S)Nc3ccc(OC)cc3)c2S)cc1
TGI [1]: > 100 µM | TGI [2]: > 100 µM | TGI [3]: > 100 µM | TGI [4]: > 100 µM | TGI [5]: > 100 µM | TGI [6]: > 100 µM | TGI [7]: > 100 µM | TGI [8]: > 100 µM | TGI [9]: > 100 µM | TGI [10]: > 100 µM

COC(=O)C1C(O)CCC2CN3CCc4c([nH]c5cccc(OC)c45)C3CC21 (centres undefined)
TGI [1]: > 100 µM | TGI [2]: > 100 µM | TGI [3]: > 100 µM | TGI [4]: > 100 µM | TGI [5]: > 100 µM | TGI [6]: > 100 µM | TGI [7]: > 100 µM | TGI [8]: > 100 µM | TGI [9]: > 100 µM | TGI [10]: > 100 µM

CCOC(=O)C1CCn2c(nc3c2c(=O)n(C)c(=O)n3C)S1 (centres undefined)
TGI [1]: > 100 µM | TGI [2]: > 100 µM | TGI [3]: > 100 µM | TGI [4]: > 100 µM | TGI [5]: > 100 µM | TGI [6]: > 100 µM | TGI [7]: > 100 µM | TGI [8]: > 100 µM | TGI [9]: > 100 µM | TGI [10]: > 100 µM

C[C@]12CCC(=O)C=C1CC[C@@H]1[C@@H]2[C@@H](O)C[C@@]2(C)[C@H]1CC[C@]2(O)C(=O)CO
TGI [1]: > 100 µM | TGI [2]: > 100 µM | TGI [3]: > 100 µM | TGI [4]: > 100 µM | TGI [5]: > 100 µM | TGI [6]: > 100 µM | TGI [7]: > 100 µM | TGI [8]: > 100 µM | TGI [9]: > 100 µM | TGI [10]: > 100 µM

O=C1c2cc3c(cc2-c2c1c1ccc(Cl)cc1c(=O)n2C[C@H](O)[C@@H](O)[C@H](O)CO)OCO3
GI50 [1]: 0.0254 µM | TGI [1]: 0.118 µM | GI50 [2]: 0.126 µM | TGI [2]: > 100 µM | GI50 [3]: 0.0292 µM | TGI [3]: 10.1 µM | GI50 [4]: 0.0737 µM | TGI [4]: 0.505 µM | GI50 [5]: 0.0293 µM | TGI [5]: 0.193 µM | GI50 [6]: 0.0163 µM | TGI [6]: 0.325 µM | GI50 [7]: 0.271 µM | TGI [7]: 1.58 µM | GI50 [8]: < 0.01 µM | TGI [8]: 0.0505 µM | GI50 [9]: 0.0771 µM | TGI [9]: 0.396 µM | GI50 [10]: 0.0129 µM | TGI [10]: 0.111 µM

CC1(C)CCC2(C(=O)OC3OC(CO)C(O)C(O)C3O)CCC3(C)C(=CCC4C5(C)CCC(OC6OC(CO)C(O)C(O)C6O)C(C)(C)C5CCC43C)C2C1 (centres undefined)
TGI [1]: > 25 µM | TGI [2]: > 25 µM | TGI [3]: > 25 µM | TGI [4]: > 25 µM | TGI [5]: > 25 µM | TGI [6]: > 25 µM | TGI [7]: > 25 µM | TGI [8]: 10.4 µM | TGI [9]: > 25 µM | TGI [10]: > 25 µM

N[C@H]1CCN(c2c(F)cc3c(=O)c(C(=O)O)cn4c3c2Oc2cc3c(ccc5ccccc53)cc2-4)C1
TGI [1]: 8.06 µM | TGI [2]: > 100 µM | TGI [3]: > 100 µM | TGI [4]: > 100 µM | TGI [5]: > 100 µM | TGI [6]: > 100 µM | TGI [7]: > 100 µM | TGI [8]: 5.02 µM | TGI [9]: > 100 µM | TGI [10]: > 100 µM

NCCNc1nc(N2CCCC2)c2nc(Cl)c(NCc3ccccc3)nc2n1
TGI [1]: 3.99 µM | TGI [2]: 4.7 µM | TGI [3]: 3.16 µM | TGI [4]: 3.73 µM | TGI [5]: 5.46 µM | TGI [6]: 4.73 µM | TGI [7]: 3.25 µM | TGI [8]: 2.87 µM | TGI [9]: 4 µM | TGI [10]: 3.19 µM

C/C(=N\NC(=O)c1cccnc1)c1cccc(/C(C)=N/NC(=O)c2cccnc2)n1
TGI [1]: 12.2 µM | GI50 [2]: 3.74 µM | TGI [2]: 27.7 µM | TGI [3]: 13.6 µM | GI50 [4]: 2.6 µM | TGI [4]: 9.81 µM | TGI [5]: > 100 µM | TGI [6]: > 100 µM | TGI [7]: > 100 µM | TGI [8]: > 100 µM | TGI [9]: 35.4 µM | TGI [10]: 5.7 µM

CC1(C)CC(=O)C2=C(C1)NC(SSC1=C(C#N)C(c3ccc(F)cc3)C3=C(CC(C)(C)CC3=O)N1)=C(C#N)C2c1ccc(F)cc1 (centres undefined)
GI50 [1]: 28.7 µg/mL | TGI [1]: 53.7 µg/mL | GI50 [2]: 15 µg/mL | TGI [2]: 15 µg/mL | GI50 [3]: 22.6 µg/mL | TGI [3]: 49.5 µg/mL | GI50 [4]: 31.8 µg/mL | TGI [4]: 56.6 µg/mL | GI50 [5]: 31.1 µg/mL | TGI [5]: 68.2 µg/mL | GI50 [6]: 6.93 µg/mL | TGI [6]: 25 µg/mL | GI50 [7]: 23.6 µg/mL | TGI [7]: 46 µg/mL | GI50 [8]: 15 µg/mL | TGI [8]: 15 µg/mL | GI50 [9]: 30.2 µg/mL | TGI [9]: 51.6 µg/mL | GI50 [10]: 23.7 µg/mL | TGI [10]: 43.9 µg/mL

CC(Sc1ccccc1)C(CO)(CO)[N+](=O)[O-] (centres undefined)
TGI [1]: 30.6 µM | TGI [2]: 38 µM | TGI [3]: 32.9 µM | TGI [4]: 38.7 µM | TGI [5]: 33.3 µM | TGI [6]: 28.4 µM | TGI [7]: 33.7 µM | TGI [8]: 26 µM | TGI [9]: 30.2 µM | TGI [10]: 29.9 µM

COc1ccc(/C=C(\C#N)c2nc(N)nc(N3N=C(C)CC3(C)C)n2)c(O)c1
TGI [1]: 31 µM | TGI [2]: 56.4 µM | TGI [3]: 35.6 µM | TGI [4]: 31.7 µM | TGI [5]: 42.3 µM | TGI [7]: 77.7 µM | TGI [8]: 94.1 µM | TGI [9]: 59.1 µM | TGI [10]: 34.6 µM

C[C@]12CC[C@@H]3c4ccccc4CC[C@H]3[C@@H]1CC[C@@H]2O
TGI [1]: > 100 µM | TGI [2]: > 100 µM | TGI [3]: > 100 µM | TGI [4]: > 100 µM | TGI [5]: > 100 µM | TGI [6]: > 100 µM | TGI [7]: > 100 µM | TGI [8]: > 100 µM | TGI [9]: > 100 µM | TGI [10]: > 100 µM

O=S(=O)(O)c1cccc2c(N=Nc3c(O)ccc4ccccc34)cccc12
TGI [1]: > 100 µM | TGI [2]: > 100 µM | TGI [3]: > 100 µM | TGI [4]: > 100 µM | TGI [5]: > 100 µM | TGI [6]: > 100 µM | TGI [7]: > 100 µM | TGI [8]: > 100 µM | TGI [9]: > 100 µM | TGI [10]: > 100 µM

CN1C2CCC1C(C(O)c1ccccc1[N+](=O)[O-])C(=O)C2 (centres undefined)
TGI [1]: > 100 µM | TGI [2]: > 100 µM | TGI [3]: > 100 µM | TGI [4]: > 100 µM | TGI [5]: > 100 µM | TGI [6]: > 100 µM | TGI [7]: > 100 µM | TGI [8]: > 100 µM | TGI [9]: > 100 µM | TGI [10]: > 100 µM

Nc1nc(N)c2c(n1)NC(c1ccccc1)CC(/C=C/c1ccc(Cl)cc1)=N2 (centres undefined)
TGI [1]: 25.5 µM | TGI [2]: 7.67 µM | TGI [3]: 28.3 µM | TGI [4]: 32.7 µM | TGI [5]: 16.1 µM | TGI [6]: 26.8 µM | TGI [7]: 8.64 µM | TGI [8]: > 100 µM | TGI [9]: 7.78 µM | TGI [10]: 25 µM

O=S1(=O)OC(c2ccc(O)cc2)(c2ccc(O)cc2)c2ccccc21
TGI [1]: > 100 µM | TGI [2]: > 100 µM | TGI [3]: > 100 µM | TGI [4]: > 100 µM | TGI [5]: > 100 µM | TGI [6]: > 100 µM | TGI [7]: > 100 µM | TGI [8]: > 100 µM | TGI [9]: > 100 µM | TGI [10]: > 100 µM
